In the SangsterLogP compilation:

Row | SMILES | logP
1 | CNC(=S)NCC#CCC(NC(=O)C(Cc1ccccc1)NS(=O)(=O)N1CCOCC1)C(=O)NC(CC1CCCCC1)C(O)CC(=O)NCCN1CCOCC1 (stereo unspecified) | 2.9
2 | CCC(C)CNC(=O)CC(O)C(CC(C)C)NC(=O)C(CCCCN)NC(=O)C(Cc1ccc2ccccc2c1)Cc1cccc2ccccc12 (stereo unspecified) | 5.25
3 | CC(C)CC(NC(=O)C(CCCCNC(=N)N[N+](=O)[O-])NC(=O)C(Cc1cccc2ccccc12)Cc1cccc2ccccc12)C(O)CC(=O)NCCN1CCOCC1 (stereo unspecified) | 4.09
4 | CC(C)CC(NC(=O)C(CCCCNC(=O)OCc1ccccc1)NC(=O)C(Cc1ccccc1)NS(=O)(=O)N1CCOCC1)C(=O)C(F)(F)C(=O)NCCN1CCOCC1 (stereo unspecified) | 2.32
5 | O=C(CC(O)C(CC1CCCCC1)NC(=O)C(NC(=O)C(Cc1ccccc1)NS(=O)(=O)N1CCOCC1)C1=CN=N1)NCCN1CCOCC1 (stereo unspecified) | 2.25
6 | CCC(C)CNC(=O)CC(O)C(CC(C)C)NC(=O)C(CCCn1cccc1)NC(=O)C(Cc1ccc2ccccc2c1)Cc1cccc2ccccc12 (stereo unspecified) | 7.09
7 | CNC(=S)NCC#CCC(NC(=O)C(Cc1ccc2ccccc2c1)Cc1cccc2ccccc12)C(=O)NC(CC1CCCCC1)C(O)CC(=O)NCCN1CCOCC1 (stereo unspecified) | 5.44
8 | CNC(=S)NCCCCC(NC(=O)C(Cc1ccc2ccccc2c1)Cc1cccc2ccccc12)C(=O)NC(CC(C)C)C(O)CC(=O)NCCN1CCOCC1 (stereo unspecified) | 3.91
9 | CSC(=NC#N)NCCCCC(NC(=O)C(Cc1ccc2ccccc2c1)Cc1cccc2ccccc12)C(=O)NC(CC(C)C)C(O)CC(=O)NCCN1CCOCC1 (stereo unspecified) | 4.67
10 | CCC(C)CNC(=O)CC(O)C(CC(C)C)NC(=O)C(CCCCCNC(=N)N[N+](=O)[O-])NC(=O)C(Cc1ccc2ccccc2c1)Cc1cccc2ccccc12 (stereo unspecified) | 5.1
11 | CNC(=S)NCCCCC(NC(=O)C(CC(=O)N1CCOCC1)Cc1cccc2ccccc12)C(=O)NC(CC1CCCCC1)C(O)CC(=O)NCCN1CCOCC1 (stereo unspecified) | 1.68
12 | CNC(=S)NCCCCC(NC(=O)C(Cc1ccccc1)NS(=O)(=O)N1CCOCC1)C(=O)NC(CC1CCCCC1)C(O)CC(=O)NCCN1CCOCC1 (stereo unspecified) | 2.26
13 | CC(=O)NCC#CCC(NC(=O)C(Cc1ccccc1)NS(=O)(=O)N1CCOCC1)C(=O)NC(CC1CCCCC1)C(O)CC(=O)NCCN1CCOCC1 (stereo unspecified) | 2.12
14 | CNC(=S)NCCCCC(NC(=O)C(Cc1ccccc1)NS(=O)(=O)N(C)C)C(=O)NC(CC1CCCCC1)C(O)CC(=O)NCCN1CCOCC1 (stereo unspecified) | 2.41
15 | CCC(C)CNC(=O)CC(O)C(CC(C)C)NC(=O)C(CCCCNS(=O)(=O)c1ccc(C)cc1)NC(=O)C(Cc1ccc2ccccc2c1)Cc1cccc2ccccc12 (stereo unspecified) | 6.7
16 | CCC(C)CNC(=O)C(F)(F)C(O)C(CC(C)C)NC(=O)C(CCCCNC(=NC#N)SC)NC(=O)C(Cc1ccc2ccccc2c1)Cc1cccc2ccccc12 (stereo unspecified) | 5.51
17 | CCC(C)CNC(=O)CC(O)C(CC(C)C)NC(=O)C(CCCCNP(=O)(Oc1ccccc1)Oc1ccccc1)NC(=O)C(Cc1ccc2ccccc2c1)Cc1cccc2ccccc12 (stereo unspecified) | 7.88
18 | CNC(=S)NCCCCC(C(=O)NC(CC1CCCCC1)C(O)C(F)(F)C(=O)NCCN1CCOCC1)C(=O)C(Cc1ccccc1)NS(=O)(=O)N1CCOCC1 (stereo unspecified) | 2.93
19 | CC(C)(C)OC(=O)NCC#CCC(NC(=O)C(Cc1ccc2ccccc2c1)Cc1cccc2ccccc12)C(=O)NC(CC1CCCCC1)C(O)CC(=O)NCCN1CCOCC1 (stereo unspecified) | 6
20 | CCC(C)CNC(=O)CC(O)C(CC(C)C)NC(=O)C(CCCCn1cccc1)NC(=O)C(CC1=Cc2ccccc2C1)Cc1cccc2ccccc12 (stereo unspecified) | 7.21
21 | CCC(C)CNC(=O)CC(O)C(CC1CCCCC1)NC(=O)C(CCCCNC(=S)NC)NC(=O)C(Cc1ccc2ccccc2c1)Cc1cccc2ccccc12 (stereo unspecified) | 6.63

Row | SMILES | logP
22 | CNC(=S)NCCCCC(NC(=O)C(Cc1ccccc1)CS(=O)(=O)C(C)(C)C)C(=O)NC(CC1CCCCC1)C(O)CC(=O)NCCN1CCOCC1 (stereo unspecified) | 2.64
23 | CNC(=S)NCCCCC(NC(=O)C(CC(=O)N1CCOCC1)Cc1cccc2ccccc12)C(=O)NC(CC(C)C)C(O)CC(=O)NCCN1CCOCC1 (stereo unspecified) | 2.43
24 | CNC(=S)NCCCCC(NC(=O)C(Cc1ccc2ccccc2c1)Cc1cccc2ccccc12)C(=O)NC(CC(C)C)C(O)C(F)(F)C(=O)NCCN1CCOCC1 (stereo unspecified) | 5.5
25 | CCC(C)CC(=O)CC(O)C(CC(C)C)NC(=O)C(CCCCNC(N)=O)NC(=O)C(Cc1ccc2ccccc2c1)Cc1cccc2ccccc12 (stereo unspecified) | 5.31
26 | CCC(C)CNC(=O)CC(O)C(CC(C)C)NC(=O)C(CCCCNC(=S)Nc1ccccc1)NC(=O)C(Cc1ccc2ccccc2c1)Cc1cccc2ccccc12 (stereo unspecified) | 6.6
27 | CNC(=S)NCCCCC(NC(=O)C(Cc1ccc2ccccc2c1)Cc1cccc2ccccc12)C(=O)NC(CC1CCCCC1)C(O)CC(=O)NCCN1CCOCC1 (stereo unspecified) | 5.46
28 | O=CNCC#CCC(NC(=O)C(Cc1cccc2ccccc12)Cc1cccc2ccccc12)C(=O)NC(CC1CCCCC1)C(O)CC(=O)NCCN1CCOCC1 (stereo unspecified) | 5.44
29 | CCC(C)CNC(=O)CC(O)C(CC(C)C)NC(=O)C(CC#CCNC(C)=O)NC(=O)C(Cc1ccc2ccccc2c1)Cc1cccc2ccccc12 (stereo unspecified) | 5.32
30 | CCC(C)CNC(=O)CC(O)C(CC(C)C)NC(=O)C(CC=CCNC(=S)NC)NC(=O)C(Cc1ccc2ccccc2c1)Cc1cccc2ccccc12 (stereo unspecified) | 5.23
31 | CCC(C)CNC(=O)CC(O)C(CC(C)C)NC(=O)C(CCCCNC(=S)NC)NC(=O)C(Cc1ccc2ccccc2c1)Cc1cccc2ccccc12 (stereo unspecified) | 5.71
32 | N=C(NCC#CCC(NC(=O)C(Cc1cccc2ccccc12)Cc1cccc2ccccc12)C(=O)NC(CC1CCCCC1)C(O)CC(=O)NCCN1CCOCC1)N[N+](=O)[O-] (stereo unspecified) | 4.73
33 | CCC(C)CNC(=O)CC(O)C(CC(C)C)NC(=O)C(CCCCNC(=O)NC)NC(=O)C(Cc1ccc2ccccc2c1)Cc1cccc2ccccc12 (stereo unspecified) | 5.63
34 | CNC(=S)NCCCCC(NC(=O)C(Cc1ccc2ccccc2c1)Cc1cccc2ccccc12)C(=O)NC(CC(C)C)C(O)CC(=O)NC(CC(C)C)C(=O)NCc1ccccc1 (stereo unspecified) | 6.7
35 | CCC(C)CNC(=O)CC(O)C(CC(C)C)NC(=O)C(CCCCNC(C)=O)NC(=O)C(Cc1ccc2ccccc2c1)Cc1cccc2ccccc12 (stereo unspecified) | 4.38
36 | CCC(C)CNC(=O)CC(O)C(CC(C)C)NC(=O)C(CCCCCCNC(=S)NC)NC(=O)C(Cc1ccc2ccccc2c1)Cc1cccc2ccccc12 (stereo unspecified) | 5.64
37 | CC(C)CC(NC(=O)CC(O)C(CC(C)C)NC(=O)C(CCCCNC(=O)OCc1ccccc1)NC(=O)C(Cc1ccc2ccccc2c1)Cc1cccc2ccccc12)C(=O)NCc1ccccc1 (stereo unspecified) | 7.69
38 | CC(C)CC(NC(=O)C(CCCCNC(=N)N[N+](=O)[O-])NC(=O)C(CC(=O)N1CCOCC1)Cc1cccc2ccccc12)C(O)CC(=O)NCCN1CCOCC1 (stereo unspecified) | 1.95
39 | CCC(C)CNC(=O)CC(O)C(CC(C)C)NC(=O)C(CCCCCNC(=S)NC)NC(=O)C(Cc1ccc2ccccc2c1)Cc1cccc2ccccc12 (stereo unspecified) | 5.41
40 | CC(C)CC(NC(=O)CC(O)C(CC(C)C)NC(CCCCNC(=N)N[N+](=O)[O-])NC(=O)C(Cc1ccc2ccccc2c1)Cc1cccc2ccccc12)C(=O)NCc1ccccc1 (stereo unspecified) | 5.51
41 | CCC(C)CNC(=O)CC(O)C(CC(C)C)NC(=O)C(CC=CCNC(C)=O)NC(=O)C(Cc1ccc2ccccc2c1)Cc1cccc2ccccc12 (stereo unspecified) | 5.56
